Source: patent publication US12121518B2, “PARP-1 and methods of use thereof” (The Board of Supervisors of Louisiana State University and …, priority 2017, dated 2024)

Assays:
[1] = system: trinitrobenzene sulfonic acid-induced colitis; settings: in vivo; cited from earlier work
[2] = system: steroid-resistant leukemia cells; assay: Steroid-resistant leukemia cells: cell killing and NOTCH levels; assay type: cell-based; settings: GSI alone: 1 nM PF-3084014 or 25 nM BMS-906024
[3] = 20-30 μM; cited from earlier work
[4] = system: ARG-1, iNOS, COX2; assay: Immunoblot of ARG-1, iNOS, COX2 and related factors in bone marrow-derived MDSCs; assay type: cell-based, mouse; settings: day 2 to day 4 of differentiation
Source text: (I) Positive control for PARP-1 trapping.
Cell fractionation, protein extraction and immunoblot analysis—Tumor tissues or cells were harvested and homogenized in RIPA lysis buffer (Santa Cruz Biotechnology) containing a cocktail of protease and phosphatase inhibitors on ice. Nuclear fractions were isolated as described (35) and the remaining chromatin pellets were washed then suspended in an isotonic buffer followed by sonication. […] Protein expression signals developed by ECL (Pierce, ThermoFisher Scientific) were determined by a G:Box Gel Image Analysis System (Syngene, Cambridge, UK) equipped with the GeneSys image capture software.

[5] = system: bone marrow-derived MDSCs; assay: Bone marrow-derived MDSC differentiation in vitro: viability and CD11b/Gr1 phenotype by FACS; settings: 1 μM
[6] = in vivo; cited from earlier work

Structure (SMILES): NC(=O)c1cccc(N)c1 [3-aminobenzamide]
- colitis [1]: protection

Structure (SMILES): CN1C(=O)[C@@H](NC(=O)[C@H](CCC(F)(F)F)[C@H](CCC(F)(F)F)C(N)=O)N=C(c2ccccc2)c2ccccc21 [BMS-906024]
- NOTCH1 levels or cell proliferation of leukemia cells [2]: do not have major effects

Structure (SMILES): CCC[C@H](N[C@H]1CCc2cc(F)cc(F)c2C1)C(=O)Nc1cn(C(C)(C)CNCC(C)(C)C)cn1 [PF-3084014]
- NOTCH1 levels or cell proliferation of leukemia cells [2]: do not have major effects

Structure (SMILES): O=c1[nH]c2sccc2c2ccccc12 [TIQ-A]
- cytotoxicity [3]: cytotoxic

Structure (SMILES): NC(=O)c1cccc2cn(-c3ccc([C@@H]4CCCNC4)cc3)nc12 [niraparib]
- expression of Arg1 in BM-MDSCs ([4]; 4 nM): blocked expression of Arg1

Structure (SMILES): CNCc1ccc(-c2[nH]c3cc(F)cc4c3c2CCNC4=O)cc1 [rucaparib]
- MDSC population (CD11b+/Gr1+) at day 4 [5]: appears to increase MDSC population
- expression of Arg1 in BM-MDSCs ([4]; 4 nM): blocked expression of Arg1

Structure (SMILES): Cn1ncnc1[C@H]1c2n[nH]c(=O)c3cc(F)cc(c23)N[C@@H]1c1ccc(F)cc1 [talazoparib]
- expression of Arg1 in BM-MDSCs ([4]; 0.4 nM): blocked expression of Arg1
- maximum tolerated dose [6]: 1 mg/day

Structure (SMILES): C[C@]1(c2nc3c(C(N)=O)cccc3[nH]2)CCCN1 [velaparib]
- expression of Arg1 in BM-MDSCs ([4]; 4 nM): blocked expression of Arg1
